Laboratory results from PubChem BioAssay (NCI).
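All cell lines were grown in 96-well plates and treated with compound for 48 hours. GI50 = concentration required for 50% inhibition of growth. At the TGI there is no net growth.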

Key:
Assay in all cases: NCI-60 cell line screen, 48 h
[1] = test system: KM12 colon
[2] = test system: LOX IMVI melanoma
[3] = test system: SNB-19 CNS
[4] = test system: A498 renal
[5] = test system: UACC-257 melanoma
[6] = test system: SF-268 CNS
[7] = test system: SK-MEL-5 melanoma
[8] = test system: A549 NSCLC
[9] = test system: RPMI-8226 leukemia

Row | Compound | TGI [1] | TGI [2] | TGI [3] | TGI [4] | TGI [5] | TGI [6] | TGI [7] | TGI [8] | TGI [9] | GI50 [6] | GI50 [5] | GI50 [9] | GI50 [7] | GI50 [8]
1 | Cc1ccc(SSCCCS(=O)O)cc1 | > 100 µM | 32.3 µM | > 100 µM | 69.9 µM | > 100 µM | 48.2 µM | > 100 µM | > 100 µM | – | – | – | – | – | –
2 | CC1=C(C(=O)Nc2cccc(C(F)(F)F)c2)C(c2ccc(O)cc2)C(C(=O)Nc2cccc(C(F)(F)F)c2)=C(C)N1 | 33.2 µM | 33.1 µM | > 100 µM | 71.9 µM | 36 µM | > 100 µM | 33.6 µM | > 100 µM | 41.2 µM | – | – | – | – | –
3 | Cc1ccc2nc3c(Cl)cc(=O)cc-3sc2c1 | – | – | – | – | 46.6 µM | 68.1 µM | 30.8 µM | 43 µM | – | – | – | – | – | –
4 | CCCCCCCCCCCCCCCCOC(=O)C(C(=O)OCCCCCCCCCCCCCCCC)[N+](C)(C)CCOC(C)=O | 33.8 µM | 44.8 µM | 43.8 µM | 57.5 µM | 35 µM | 44.1 µM | 35.1 µM | 42.6 µM | – | – | – | – | – | –
5 | CCSC1(SCC)CCN(C=NC(C)(C)C)C1 | > 100 µM | > 100 µM | > 100 µM | > 100 µM | > 100 µM | > 100 µM | > 100 µM | > 100 µM | – | – | – | – | – | –
6 | CC(C)(O)[C@@H]1CCC(C)([C@H]2[C@@H](O)CC3(C)C4CC(OC5OC(CO)C(O)C(O)C5O)C5C(C)(C)[C@@H](OC6OCC(O)C(O)C6O)CC[C@@]56C[C@@]46CC[C@]23C)O1 (some centres undefined) | > 100 µM | > 100 µM | > 100 µM | – | > 100 µM | > 100 µM | > 100 µM | > 100 µM | > 100 µM | – | – | – | – | –
7 | CC(=O)OC1C=CC2CCN3C(=O)c4cc5c(cc4[C@H]1C23)OCO5 (some centres undefined) | > 100 µM | > 100 µM | > 100 µM | – | > 100 µM | > 100 µM | – | > 100 µM | > 100 µM | – | – | – | – | –
8 | COc1ccc(/C=C2\N=C(c3ccccc3)OC2=O)c(OCc2ccccc2)c1 | > 100 µM | > 100 µM | 94.3 µM | 68.5 µM | – | > 100 µM | 52.2 µM | > 100 µM | > 100 µM | – | – | – | – | –
9 | O=[N+]([O-])c1cccc(C2SCc3nc4ccccc4n32)c1 (centres undefined) | > 100 µM | > 100 µM | > 100 µM | > 100 µM | > 100 µM | > 100 µM | 52.8 µM | > 100 µM | – | – | – | – | – | –
10 | C=C1C(=O)OC2CCCCC3OC3C12 (centres undefined) | 31.8 µM | 31.9 µM | 36.8 µM | 29.1 µM | 26.5 µM | 31.1 µM | 19.5 µM | 40.2 µM | 27.4 µM | – | – | – | – | –
11 | Cc1cc2c3ccccc3n(C)c2c2c1C(=O)c1ccccc1C2=O | > 100 µM | – | 80.3 µM | > 100 µM | 43.3 µM | > 100 µM | – | 58 µM | – | – | – | – | – | –
12 | O=C(CC(=O)N1N=C(n2ccc3ccccc32)CC1c1ccccc1)Nc1cccc(Cl)c1 (centres undefined) | > 100 µM | > 100 µM | > 100 µM | > 100 µM | > 100 µM | > 100 µM | – | > 100 µM | > 100 µM | – | – | – | – | –
13 | CC1C2Cc3ccc(O)cc3C1(C)CCN2C (centres undefined) | > 100 µM | > 100 µM | > 100 µM | > 100 µM | > 100 µM | > 100 µM | > 100 µM | > 100 µM | > 100 µM | – | – | – | – | –
14 | O=C1C=C2S[C@H]3C[C@]2(C=C1Br)c1c(c(O)c2c4c1=NCCC=4C=N2)N3 | 3.83 µM | 1.27 µM | 25.7 µM | 13.3 µM | 0.557 µM | 2.91 µM | 2.38 µM | 6.85 µM | – | – | – | – | – | –
15 | C/C=C/C=N/N(c1nnc(-c2ccccc2)c(-c2ccccc2)n1)S(=O)(=O)c1ccc(C)cc1 | 22.9 µM | 13.8 µM | – | 27.6 µM | 20.9 µM | 18 µM | 23.1 µM | 28.1 µM | 36.6 µM | – | – | – | – | –
16 | CN(C)c1cccc(-c2cc(=O)c3ccccc3[nH]2)c1 | > 100 µM | > 100 µM | > 100 µM | – | > 100 µM | > 100 µM | – | > 100 µM | > 100 µM | 76.6 µM | – | – | – | –
17 | OC1CN(OC/C=C/c2ccccc2)CC(O)C1O (centres undefined) | > 100 µM | > 100 µM | > 100 µM | > 100 µM | > 100 µM | > 100 µM | > 100 µM | > 100 µM | > 100 µM | – | – | – | – | –
18 | Cc1cc(C)nc(NS(=O)(=O)c2ccc(Nc3c4ccccc4nc4c(C(=O)NCCN(C)C)ccc(Cl)c34)cc2)n1 | 12.5 µM | 2.25 µM | 6.08 µM | – | – | 8.11 µM | 15.2 µM | 4.19 µM | – | – | – | – | – | –

Row | Compound | TGI [1] | TGI [2] | TGI [3] | TGI [4] | TGI [5] | TGI [6] | TGI [7] | TGI [8] | TGI [9] | GI50 [6] | GI50 [5] | GI50 [9] | GI50 [7] | GI50 [8]
19 | COc1c(OC(C)=O)cc2c(OC(C)=O)c1CC(C)CC(OC)C(O)C(C)/C=C(\C)C(OC(N)=O)C(OC)/C=C\C=C(/C)C(=O)N2 (centres undefined) | > 100 µM | > 100 µM | > 100 µM | > 100 µM | > 100 µM | > 100 µM | > 100 µM | > 100 µM | > 80.9 µM | – | – | – | – | –
20 | O=C1CCCCC/C=C2/CC[C@H](Sc3ccccc3)[C@@H]12 | > 100 µM | > 100 µM | > 100 µM | – | > 100 µM | > 100 µM | > 100 µM | > 100 µM | > 100 µM | – | – | – | – | –
21 | CCCOc1ccc(/C(Cl)=C(\C=O)c2ccc(OC)c(OC)c2)cc1OCCC | 34.5 µM | 25.8 µM | > 100 µM | 38.5 µM | > 100 µM | > 100 µM | 46.3 µM | > 100 µM | > 100 µM | – | – | – | – | –
22 | NC(=S)N/N=C(/CC(=O)c1ccc([N+](=O)[O-])cc1)C(=O)Nc1ncc([N+](=O)[O-])s1 | > 100 µM | > 100 µM | > 100 µM | – | > 100 µM | > 100 µM | > 100 µM | > 100 µM | > 100 µM | – | – | – | – | –
23 | COc1cccc(Nc2nc(NNC(=O)Cc3ccccc3)nc(NNC(=O)c3ccncc3)n2)c1 | > 100 µM | > 100 µM | > 100 µM | > 100 µM | > 100 µM | > 100 µM | > 100 µM | > 100 µM | > 100 µM | > 100 µM | > 100 µM | > 100 µM | > 100 µM | > 100 µM
24 | COc1ccc2c(=O)c([Se]c3coc4cc(OC)ccc4c3=O)coc2c1 | > 100 µM | > 100 µM | > 100 µM | > 100 µM | > 100 µM | > 100 µM | > 100 µM | > 100 µM | > 100 µM | – | – | – | – | –
25 | CN(C)CCNC(=O)c1cccc2nc3ccc4ccccc4c3nc12 | 0.876 µM | 0.228 µM | 0.921 µM | 0.241 µM | 0.531 µM | 0.675 µM | 0.236 µM | 0.253 µM | – | – | – | – | – | –
26 | O=c1[nH]c(=S)[nH]c2c1sc(=S)n2-c1ccccc1 | > 100 µM | > 100 µM | > 100 µM | > 100 µM | > 100 µM | > 100 µM | > 100 µM | > 100 µM | > 100 µM | – | – | – | – | –
27 | CC(=O)CC(=O)CCCC(=O)Nc1ccc(Cl)cc1C | > 100 µM | > 100 µM | > 100 µM | > 100 µM | > 100 µM | > 100 µM | > 100 µM | > 100 µM | > 100 µM | – | – | – | – | –
28 | OC(c1ccccc1)(c1ccccc1)c1ccccn1 | > 100 µM | > 100 µM | > 100 µM | > 100 µM | > 100 µM | > 100 µM | > 100 µM | > 100 µM | > 100 µM | – | – | – | – | –
29 | N=C(N)n1ncc(Cl)c(Cl)c1=O | 20.2 µM | – | 12.9 µM | 35.1 µM | 4.66 µM | 9.34 µM | 15.2 µM | 33.6 µM | 7.55 µM | – | – | – | – | –
30 | CC(=O)OC1(C#N)CC2OC1C1C2N1C(=O)c1ccccc1 (centres undefined) | – | > 100 µM | > 100 µM | > 100 µM | – | > 100 µM | > 100 µM | > 100 µM | > 100 µM | – | – | – | – | –
31 | COC(=O)CCC(NC(=S)N/N=C(\C)c1ccccn1)C(=O)OC (centres undefined) | > 100 µM | > 100 µM | > 100 µM | > 100 µM | > 100 µM | > 100 µM | > 100 µM | > 100 µM | > 100 µM | – | – | – | – | –
32 | CCOC(=O)CC(=O)ON(C)C(=O)Cc1ccccc1 | > 100 µM | > 100 µM | > 100 µM | > 100 µM | > 100 µM | > 100 µM | > 100 µM | > 100 µM | > 100 µM | – | – | – | – | –
33 | O=C(c1cc2ccccc2[nH]1)C(O)(c1cc2ccccc2[nH]1)c1cc2ccccc2[nH]1 | > 246 µM | > 246 µM | > 246 µM | – | > 246 µM | > 246 µM | > 246 µM | > 246 µM | > 246 µM | – | – | – | – | –
34 | CCc1cccc(C(C)CC)c1N=C(NC(=O)c1ccccc1C(=O)NC(=Nc1c(CC)cccc1C(C)CC)SC)SC (centres undefined) | > 100 µM | > 100 µM | > 100 µM | – | > 100 µM | > 100 µM | – | > 100 µM | 89.8 µM | – | – | – | – | –
35 | C/C(=N\NC(=O)CC(=O)Nc1ccc(C)cc1)c1cc2ccccc2oc1=O | > 100 µM | > 100 µM | > 100 µM | – | > 100 µM | – | > 100 µM | > 100 µM | > 100 µM | – | – | – | – | –
36 | COc1ccc(/C=C/c2cc(OC)c(O[Si](C)(C)C(C)(C)C)c(OC)c2)cc1 | > 100 µM | – | > 100 µM | > 100 µM | > 100 µM | > 100 µM | > 100 µM | > 100 µM | > 100 µM | – | – | – | – | –
